{"source": "patent US12458024B2", "about": "“Compound combination with superior herbicidal activity” (priority 2020, dated 2025)", "type_in_all_cases": "in vivo", "key": {"[1]": {"test_system": "Abuthilon theophrasti", "assay": "Field trial herbicidal action, terbuthylazine + pelargonic acid, Abuthilon theophrasti", "procedure": "(§1) The following active compounds were tested: • Product PeAc contained 249.96 g a.i./L of pelargonic acid in an EC formulation • Product IAF contained 200 g a.i./L of indaziflam formulated as SC formulation • Product TBA contained 500 g a.i./L of terbutylazine formulated as SC formulation 2. Biological Trials Herbicidal Action (Field Trials)\n(§2) The growth stages of the different weed or crop plant species are indicated according to the BBCH monograph “Growth stages of mono- and dicotyledonous plants”, 2nd edition, 2001, ed. Uwe Meier, Federal Biological Research Centre for Agriculture and Forestry (Biologische Bundesanstalt für Land und Forstwirtschaft). The respective BBCH stages are mentioned in brackets for the different weed or crop plant species and indicate the BBCH stage for the majority of the respective weed or crop plant species.\n(§3) The dose rates of herbicidal ingredients used in each case are indicated for the respective active ingredient in brackets and refer to the amount of active ingredient per hectare (g a.i./ha).\n(§4) • A is the efficacy in % when active compound A is applied at an application rate of a g a.i./ha, • B is the efficacy in % when active compound B is applied at an application rate of b g a.i./ha), • EC is the efficacy in % when the active compounds A and B are applied at application rates of a+b g a.i./ha), respectively, and Then EC=A+B−([…]/100)"}, "[2]": {"test_system": "Amaranthus retroflexus", "assay": "Field trial herbicidal action, terbuthylazine + pelargonic acid, Amaranthus retroflexus", "procedure": "as §1, §2, §3, §4"}, "[3]": {"test_system": "Chenopodium album", "assay": "Field trial herbicidal action, terbuthylazine + pelargonic acid, Chenopodium album", "procedure": "as §1, §2, §3, §4"}, "[4]": {"test_system": "Echinocloa crus-galli", "assay": "Field trial herbicidal action, terbuthylazine + pelargonic acid, Echinocloa crus-galli", "procedure": "as §1, §2, §3, §4"}, "[5]": {"test_system": "Polygonum convolvulus", "assay": "Field trial herbicidal action, indaziflam + pelargonic acid, Polygonum convolvulus", "procedure": "as §1, §2, §3, §4"}, "[6]": {"test_system": "Chenopodium album", "assay": "Field trial herbicidal action, indaziflam + pelargonic acid, Chenopodium album", "procedure": "as §1, §2, §3, §4"}, "[7]": {"test_system": "Abutilon theophrasti", "assay": "Field trial herbicidal action, indaziflam + pelargonic acid, Abutilon theophrasti", "procedure": "as §1, §2, §3, §4"}, "[8]": {"test_system": "Setaria viridis", "assay": "Field trial herbicidal action, indaziflam + pelargonic acid, Setaria viridis", "procedure": "as §1, §2, §3, §4"}, "[9]": {"test_system": "Echinocloa crus-galli", "assay": "Field trial herbicidal action, indaziflam + pelargonic acid, Echinocloa crus-galli", "procedure": "as §1, §2, §3, §4"}, "[10]": {"test_system": "Panicum maximum", "assay": "Field trial herbicidal action, indaziflam + pelargonic acid, Panicum maximum", "procedure": "as §1, §2, §3, §4"}, "[11]": {"test_system": "Zea mays", "assay": "Field trial herbicidal action, indaziflam + pelargonic acid, Zea mays", "procedure": "as §1, §2, §3, §4"}}}
{"smiles": "CCNc1nc(Cl)nc(NC(C)(C)C)n1", "note": "[Terbuthylazin, terbuthylazine]", "values": [{"measurement": "Herbicidal Activity 14 DAT [%] (EA)", "setting": "[1]; 125 g a.i./ha", "result": 0, "unit": "%"}, {"measurement": "Herbicidal Activity 14 DAT [%] (EA)", "setting": "[1]; 250 g a.i./ha", "result": 7, "unit": "%"}, {"measurement": "Herbicidal Activity 14 DAT [%] (EA)", "setting": "[1]; 500 g a.i./ha", "result": 7, "unit": "%"}, {"measurement": "Herbicidal Activity 14 DAT [%] (EA)", "setting": "[1]; 750 g a.i./ha", "result": 20, "unit": "%"}, {"measurement": "Herbicidal Activity 14 DAT [%] (EA)", "setting": "[2]; 125 g a.i./ha", "result": 0, "unit": "%"}, {"measurement": "Herbicidal Activity 14 DAT [%] (EA)", "setting": "[2]; 250 g a.i./ha", "result": 7, "unit": "%"}, {"measurement": "Herbicidal Activity 14 DAT [%] (EA)", "setting": "[2]; 500 g a.i./ha", "result": 47, "unit": "%"}, {"measurement": "Herbicidal Activity 14 DAT [%] (EA)", "setting": "[2]; 750 g a.i./ha", "result": 63, "unit": "%"}, {"measurement": "Herbicidal Activity 14 DAT [%] (EA)", "setting": "[3]; 125 g a.i./ha", "result": 0, "unit": "%"}, {"measurement": "Herbicidal Activity 14 DAT [%] (EA)", "setting": "[3]; 250 g a.i./ha", "result": 13, "unit": "%"}, {"measurement": "Herbicidal Activity 14 DAT [%] (EA)", "setting": "[3]; 500 g a.i./ha", "result": 67, "unit": "%"}, {"measurement": "Herbicidal Activity 14 DAT [%] (EA)", "setting": "[3]; 750 g a.i./ha", "result": 78, "unit": "%"}, {"measurement": "Herbicidal Activity 14 DAT [%] (EA)", "setting": "[4]; 125 g a.i./ha", "result": 0, "unit": "%"}, {"measurement": "Herbicidal Activity 14 DAT [%] (EA)", "setting": "[4]; 250 g a.i./ha", "result": 0, "unit": "%"}, {"measurement": "Herbicidal Activity 14 DAT [%] (EA)", "setting": "[4]; 500 g a.i./ha", "result": 0, "unit": "%"}, {"measurement": "Herbicidal Activity 14 DAT [%] (EA)", "setting": "[4]; 750 g a.i./ha", "result": 0, "unit": "%"}]}
{"smiles": "CCCCCCCCC(=O)O", "note": "[Pelargonic acid, nonanoic acid]", "values": [{"measurement": "Herbicidal Activity 13 DAT [%] (EA)", "setting": "[5]; 6000 g a.i./ha", "result": 40, "unit": "%"}, {"measurement": "Herbicidal Activity 13 DAT [%] (EA)", "setting": "[6]; 6000 g a.i./ha", "result": 40, "unit": "%"}, {"measurement": "Herbicidal Activity 13 DAT [%] (EA)", "setting": "[6]; 16000 g a.i./ha", "result": 80, "unit": "%"}, {"measurement": "Herbicidal Activity 13 DAT [%] (EA)", "setting": "[7]; 6000 g a.i./ha", "result": 45, "unit": "%"}, {"measurement": "Herbicidal Activity 13 DAT [%] (EA)", "setting": "[7]; 16000 g a.i./ha", "result": 88, "unit": "%"}, {"measurement": "Herbicidal Activity 13 DAT [%] (EA)", "setting": "[8]; 6000 g a.i./ha", "result": 10, "unit": "%"}, {"measurement": "Herbicidal Activity 13 DAT [%] (EA)", "setting": "[8]; 16000 g a.i./ha", "result": 45, "unit": "%"}, {"measurement": "Herbicidal Activity 13 DAT [%] (EA)", "setting": "[9]; 6000 g a.i./ha", "result": 0, "unit": "%"}, {"measurement": "Herbicidal Activity 13 DAT [%] (EA)", "setting": "[9]; 16000 g a.i./ha", "result": 25, "unit": "%"}, {"measurement": "Herbicidal Activity 13 DAT [%] (EA)", "setting": "[10]; 6000 g a.i./ha", "result": 20, "unit": "%"}, {"measurement": "Herbicidal Activity 13 DAT [%] (EA)", "setting": "[10]; 16000 g a.i./ha", "result": 50, "unit": "%"}, {"measurement": "Herbicidal Activity 13 DAT [%] (EA)", "setting": "[11]; 6000 g a.i./ha", "result": 38, "unit": "%"}, {"measurement": "Herbicidal Activity 13 DAT [%] (EA)", "setting": "[11]; 16000 g a.i./ha", "result": 65, "unit": "%"}, {"measurement": "Herbicidal Activity 14 DAT [%] (EA)", "setting": "[1]; 6000 g a.i./ha", "result": 30, "unit": "%"}, {"measurement": "Herbicidal Activity 14 DAT [%] (EA)", "setting": "[1]; 12000 g a.i./ha", "result": 57, "unit": "%"}, {"measurement": "Herbicidal Activity 14 DAT [%] (EA)", "setting": "[1]; 16000 g a.i./ha", "result": 57, "unit": "%"}, {"measurement": "Herbicidal Activity 14 DAT [%] (EA)", "setting": "[2]; 6000 g a.i./ha", "result": 13, "unit": "%"}, {"measurement": "Herbicidal Activity 14 DAT [%] (EA)", "setting": "[2]; 12000 g a.i./ha", "result": 90, "unit": "%"}, {"measurement": "Herbicidal Activity 14 DAT [%] (EA)", "setting": "[2]; 16000 g a.i./ha", "result": 93, "unit": "%"}, {"measurement": "Herbicidal Activity 14 DAT [%] (EA)", "setting": "[3]; 6000 g a.i./ha", "result": 20, "unit": "%"}, {"measurement": "Herbicidal Activity 14 DAT [%] (EA)", "setting": "[3]; 12000 g a.i./ha", "result": 88, "unit": "%"}, {"measurement": "Herbicidal Activity 14 DAT [%] (EA)", "setting": "[3]; 16000 g a.i./ha", "result": 97, "unit": "%"}, {"measurement": "Herbicidal Activity 14 DAT [%] (EA)", "setting": "[4]; 6000 g a.i./ha", "result": 13, "unit": "%"}, {"measurement": "Herbicidal Activity 14 DAT [%] (EA)", "setting": "[4]; 12000 g a.i./ha", "result": 30, "unit": "%"}, {"measurement": "Herbicidal Activity 14 DAT [%] (EA)", "setting": "[4]; 16000 g a.i./ha", "result": 33, "unit": "%"}]}
{"smiles": "Cc1ccc2c(c1)C(Nc1nc(N)nc(C(C)F)n1)C(C)C2", "note": "(mixture of isomers) [Indaziflam, N2-[(1R,2S)-2,3-dihydro-2,6-dimethyl-1H-inden-1-yl]-6-[(1RS)-1-fluoroethyl]-1,3,5-triazine-2,4-diamine]", "values": [{"measurement": "Herbicidal Activity 13 DAT [%] (EA)", "setting": "[5]; 50 g a.i./ha", "result": 55, "unit": "%"}, {"measurement": "Herbicidal Activity 13 DAT [%] (EA)", "setting": "[6]; 50 g a.i./ha", "result": 20, "unit": "%"}, {"measurement": "Herbicidal Activity 13 DAT [%] (EA)", "setting": "[7]; 10 g a.i./ha", "result": 60, "unit": "%"}, {"measurement": "Herbicidal Activity 13 DAT [%] (EA)", "setting": "[7]; 50 g a.i./ha", "result": 92, "unit": "%"}, {"measurement": "Herbicidal Activity 13 DAT [%] (EA)", "setting": "[8]; 50 g a.i./ha", "result": 0, "unit": "%"}, {"measurement": "Herbicidal Activity 13 DAT [%] (EA)", "setting": "[9]; 50 g a.i./ha", "result": 0, "unit": "%"}, {"measurement": "Herbicidal Activity 13 DAT [%] (EA)", "setting": "[10]; 50 g a.i./ha", "result": 5, "unit": "%"}, {"measurement": "Herbicidal Activity 13 DAT [%] (EA)", "setting": "[11]; 50 g a.i./ha", "result": 10, "unit": "%"}]}
